Assay results reported in patent US20210196731A1, “COMPOSITIONS AND METHODS FOR TREATING OCULAR INFLAMMATION AND OCULAR SCARRING” (priority 2018, published 2021).

How the values were obtained:
[1] = tested on: HTCFs; experiment: Lipid Mediator Secretion Assay II (ASA or APHS with and without gentamicin, LC-MS/MS); format: cell-based, human; settings: for CytoM1+TGFb1 induced COX2 activity, as measured through PGE2 and kPGF1a secretion / secretion of acetylated-COX2 products, as measured through 5-HETE and 15-HETE secretion: ASA 500 or 1000 μg/ml, with or without gentamicin 250 or 500 μg/ml, 6-48 hrs; for secretion of acetylated-COX2 products, as measured through 5-HETE and 15-HETE secretion: CytoM1+TGFb1
Method: To this end, as before, multiple primary HTCF cell lines were cultured in DMEM w/10% FBS in 6-well culture plates, incubated at 37° C. and 5% CO2, until 90% confluent. The culture media was removed, wells washed with PBS, and then fresh DMEM w/0% FBS was added. After 24 hrs of serum starvation, fresh DMEM w/0% FBS was added, this time containing a physiologically relevant inflammation/wound healing induction mixture (1 ng/ml each of: IL-1b, TNFa, IFNγ, TGFb). After 12 hrs incubation, the induction media was removed, the wells were washed with PBS and fresh DMEM w/0% FBS was added containing one of ten experimental treatments for an incubation period of 48 hrs: 1) non-induced control (NIC: received DMEM w/0% FBS instead of the induction media), and 2) CytoM1+TGFB1 (DMEM w/0% FBS and 1 ng/ml each of: IL-1b, TNFa, IFNγ, TGFb), and 3) CytoM1/TGFB1/Gent250 (DMEM w/0% FBS, 1 ng/ml each of TGFB1, TGFB2, VEGF, CCN2 and 250 μg/ml gentamicin), and 4) CytoM1/TGFB1/Gent500 (DMEM w/0% FBS, 1 ng/ml each of TGFB1, TGFB2, VEGF, CCN2 and 500 μg/ml gentamicin), and 5) CytoM1/TGFB1/ASA500 (DMEM w/0% FBS, 1 ng/ml each of TGFB1, TGFB2, VEGF, CCN2, and 500 μg/ml ASA), and 6) CytoM1/TGFB1/ASA500/Gent250 (DMEM w/0% FBS, 1 ng/ml each of TGFB1, TGFB2, VEGF, CCN2, 500 μg/ml ASA and 250 μg/ml gentamicin), and 7) CytoM1/TGFB1/ASA1000 (DMEM w/0% FBS, 1 ng/ml each of TGFB1, TGFB2, VEGF, CCN2 and 1000 μg/ml ASA), and 8) CytoM1/TGFB1/ASA1000/Gent500 (DMEM w/0% FBS, 1 ng/ml each of TGFB1, TGFB2, VEGF, CCN2, 1000 μg/ml ASA, and 500 μg/ml gentamicin), and 9) CytoM1/TGFB1/APHS12 (DMEM w/0% FBS, 1 ng/ml each of TGFB1, TGFB2, VEGF, CCN2 and 12 μg/ml o-(acetoxyphenyl)hept-2-ynyl sulfide (APHS), and 10) CytoM1/TGFB1/APHS12/Gent250 (DMEM w/0% FBS, 1 ng/ml each of TGFB1, TGFB2, VEGF, CCN2, 12 μg/ml o-(acetoxyphenyl)hept-2-ynyl sulfide (APHS) and 250 μg/ml gentamicin). At 6, 12, 24 and 48 hrs after addition of the experimental treatments, 250 ul of supernatant was removed from each well, replaced with 250 ul of fresh DMEM w/0% FBS, and stored at −80° C. for subsequent LC-MS/MS analysis. After 48 hrs, the wells were washed with ice cold PBS three times and total cellular protein from the HTCF monolayer was collected for quantification and subsequent western blot analyses. The absolute quantity of protein within each culture well's HTCF monolayer was used as a means to standardize the relative secretion of lipid mediators by HTCFs into the culture well's supernatant.
This is a well-established method to determine the relative activity of cyclooxygenase, acetyl-COX2 and lipoxygenase biosynthetic pathways. In brief, the ratios of the integrated areas of the chromatographic peaks corresponding to each analyte and the integrated areas of the peaks corresponding to each analyte's internal standard (with known absolute quantity) are used to determine the relative quantity of each analyte in a given sample. After supernatant sample collection, 250 ul of methanol containing 100 μg of each deuterated internal standard was added. Samples were then vigorously vortexed and centrifuged at 10,000 g for 10 min before loading onto solid-phase extraction cartridges (Strata-X 33 um Polymeric Reversed Phase, 10 mg, Phenomenex 8B-S100-AAK), that were previously activated with 2 ml methanol and rinsed with 2 ml water. […] After washing with 5 ml water, extracts were eluted with 1 ml methanol. Solvent was then evaporated under vacuum in a SpeedVac centrifuge, and the extract was resuspended in 100 ul acetonitrile/water 60:40 (v/v). An aliquot of 20 ul was injected into the LC-MS/MS system for analysis. […] A Sciex Triple Quad 6500+ mass spectrometer with multiple reaction monitoring was used in negative ion mode. The chromatographic profile of the ion count for each m/z transition was monitored, and the area under the peaks (ion intensity vs elution time) was integrated using commercial software (MultiQuant, Sciex).

[2] = tested on: collagen 1; experiment: Western blot of HTCF protein lysate, collagen 1; format: cell-based, human; settings: ASA 500 or 1000 μg/ml, APHS 12 μg/ml, with or without gentamicin 250 or 500 μg/ml, 48 hrs
Method: Cells were lysed in lysis buffer (PhosphoSafe Extraction Reagent, Novagen) containing a protease inhibitor cocktail (P2714, Sigma-Aldrich). Crude protein lysate was quantified using a Pierce BCA protein assay kit (ThermoFisher, Mississauga, ON) and 10 ug from each sample was resolved using a Novex WedgeWell 4-20% tris-glycine gel (Invitrogen). Using an iBlot Gel Transfer Device (IB1001, Invitrogen), the separated protein was transferred to a nitrocellulose membrane (1B301001, iBlot Transfer Stack, Invitrogen) which was then blocked with 5% (w/v) bovine serum albumin (Sigma-Aldrich) in Tris buffered saline (TBST) for 1 hour at room temperature. The membranes were incubated overnight at 4° C. with primary antibody diluted in TBST containing 5% BSA (w/vol). […] Visualization was accomplished by applying WesternBright Quantum chemiluminescent reagent (Advansta, Inc.), with GAPDH used as a protein loading control. Imaging and relative densiometric quantification was accomplished using a ChemiDoc MP System (Bio-Rad Laboratories, Inc.) connected to Image Lab (Version 6, Bio-Rad Laboratories, Inc.).

| Compound | net enzymatic activity, acetylated-COX2 vs COX2 production of lipid mediators ([1]; APHS 12 μg/ml, alone or with gentamicin 250 μg/ml, vs inf. cytokines control) | CytoM1+TGFb1 induced COX2 activity, as measured through PGE2 and kPGF1a secretion ([1]; APHS 12 μg/ml) | secretion of acetylated-COX2 products, as measured through 5-HETE and 15-HETE secretion ([1]; APHS 12 μg/ml) | AHGF-induced expression of collagen 1 [2] | relative amount of COX2 products relative to inf. cytokines control ([1]; ASA 500 μg/ml) | balance of enzymatic activity (COX2:acetyl-COX2 ratio) ([1]; ASA 500 μg/ml, alone or with gentamicin 250) | relative amount of COX2 products relative to inf. cytokines control ([1]; ASA 1000 μg/ml) | balance of enzymatic activity (COX2:acetyl-COX2 ratio) ([1]; ASA 1000 μg/ml, alone or with gentamicin 500) |
| --- | --- | --- | --- | --- | --- | --- | --- | --- |
| CCCCC#CCSc1ccccc1OC(C)=O [APHS, o-(acetoxyphenyl)hept-2-ynyl sulfide] | significantly shift the net enzymatic activity toward net acetylated-COX2 production of lipid mediators | significantly inhibit COX2 activity | profoundly and significantly increased the secretion of acetylated-COX2 products relative to all other treatment groups | significantly reduced |  |  |  |  |
| CC(=O)Oc1ccccc1C(=O)O [ASA, acetylsalicylic acid] |  | significantly inhibit CytoM1+TGFb1 induced COX2 activity | either no effect or a significantly smaller effect on acetylated-COX2 products relative to the ASA/Gent experimental group | significantly reduced | significantly reduce the relative amount of COX2 products relative to the inf. cytokines control group | positive values for the COX2:acetyl-COX2 ratio at all timepoints | significantly reduce the relative amount of COX2 products relative to the inf. cytokines control group | unable to significantly shift the balance of enzymatic activity toward net actyl-COX2 production relative to COX2 production |
